How the values were obtained:
high fat diet-mouse [1] = assay: Amount of feed intake by oral administration in high fat diet-mouse; type: in vivo
Method: Male C57BL/6J mice (Five age of the week, KRIBB, Korea) were accommodated for 1 week. And then, the weights of the animals were equally divided into 5 animals as one group. While a high fat diet (60% fat kcal) was provided, sterilized distilled water and HPBCDs with 10, 20, and 40% (W/V) were orally administered at three times (Morning, Afternoon, Evening) a day for 5 days in 0.2 ml per 20 g body weight of a mouse at the same time. A change in body weight was measured to all of the animals during the test at one time per day; the fixed amount of feeds was provided at the day of measuring body weight, and then an average amount of intake per an animal (g/mouse/day) was calculated by measuring a residual amount of feeds at the next day.

high fat diet-mouse [2] = assay: Change of liver weight and body fat by oral administration in high fat diet-mouse; type: in vivo; details: oral for 5 days
Method: […] The mice were killed by using CO2 gas; their abdomens were cut; their subcutaneous fats, genital fats, intra-abdominal fats, and livers were isolated; then their weights were measured using a chemical balance; average weight of five animals was calculated.

normal mouse (ICR) [3] = assay: Oral glucose tolerance test; type: in vivo; details: for Rate of Suppression (%): vs control group
Text: An oral glucose tolerance test system is to comprehensively predict whether or not a sample has an effect on suppressing a sharp increase of blood sugar induced by intaking glucose after an oral-administration of the sample to a mouse, activities of suppressing glycolysis/glucose absorption, etc.
(§1) A normal mouse [ICR, 6W, Coretech Inc., Korea] was accommodated for 1 week, and then approximately 18˜20 g female with 7 age of the week mouse was used. 6 mice were assigned for one experimental group and starved for 16 hours to use. Hydroxypropyl-β-cyclodextrin (HPBCD) was dissolved in sterilized distilled water to be 20% (W/V) concentration, and then oral-administered in 0.2 mL per 20 g body weight of a mouse. And then, the glucose dissolved in physiological saline was oral-administered to mice in a liquid amount of 10 ml/kg to inject 2 g/kg after 15, 30, 60, and 90 minutes, respectively. The levels of blood sugars were measured just before administering glucose (0 hour), and at 15, 60, and 120 minutes after administering glucose. Blood for measuring blood sugar was collected from orbital venous of the mouse using a capillary tube. The blood sugar in the collected blood was measured using a measuring instrument, […] ALPHA (Boehringer mannheim Co.). The same amount of sterilized distilled water was administered for the control group.

normal mouse (ICR) [4] = assay: Oral maltose tolerance test; type: in vivo; details: for Rate of Suppression (%): vs control group
Method: An oral maltose tolerance test system is to predict whether or not a sample has an effect on suppressing a sharp increase of blood sugar induced by intaking maltose after an oral-administration of the sample to a mouse.
as §1, with “HPBCD” for “Hydroxypropyl-β-cyclodextrin (HPBCD)”, “maltose” for “glucose”, “maltose.” for “glucose.”

[5] = system: mouse model with obesity caused by a high fat diet; assay: Change in body weight by autonomically drinking in mouse model with obesity caused by high fat diet; type: in vivo
Solubility in water = details: at 25° C.
[6] = 20% (W/V) oral (−)15 min. before glucose 2 g/kg
[7] = 20% (W/V) oral (−)30 min. before glucose 2 g/kg
[8] = 20% (W/V) oral (−)60 min. before glucose 2 g/kg
[9] = 20% (W/V) oral (−)90 min. before glucose 2 g/kg
[10] = 20% (W/V) oral (−)15 min. before maltose 2 g/kg
[11] = 20% (W/V) oral (−)30 min. before maltose 2 g/kg
[12] = 20% (W/V) oral (−)60 min. before maltose 2 g/kg
[13] = 20% (W/V) oral (−)90 min. before maltose 2 g/kg
[14] = 10, 15, 20% (W/V) autonomically drinking

Substance: 2-hydroxypropyl-β-cyclodextrin [HPBCD]
- Amount of Feed Intake (g/mouse/day) (high fat diet-mouse [1]; 10% (w/v) oral three times a day, 1 Day): 3.0 ± 0.2 g/mouse/day
- Amount of Feed Intake (g/mouse/day) (high fat diet-mouse [1]; 10% (w/v) oral three times a day, 2 Day): 2.8 ± 0.3 g/mouse/day
- Amount of Feed Intake (g/mouse/day) (high fat diet-mouse [1]; 10% (w/v) oral three times a day, 3 Day): 2.9 ± 0.5 g/mouse/day
- Amount of Feed Intake (g/mouse/day) (high fat diet-mouse [1]; 10% (w/v) oral three times a day, 4 Day): 2.7 ± 0.5 g/mouse/day
- Amount of Feed Intake (g/mouse/day) (high fat diet-mouse [1]; 10% (w/v) oral three times a day, 5 Day): 2.7 ± 0.5 g/mouse/day
- amount of dietary intake (high fat diet-mouse [1]; 10, 20, 40% (W/V) oral): temporary effect on decreasing an amount of dietary intake
- Amount of Feed Intake (g/mouse/day) (high fat diet-mouse [1]; 20% (w/v) oral three times a day, 1 Day): 2.4 ± 0.4 g/mouse/day
- Amount of Feed Intake (g/mouse/day) (high fat diet-mouse [1]; 20% (w/v) oral three times a day, 2 Day): 2.1 ± 0.4 g/mouse/day
- Amount of Feed Intake (g/mouse/day) (high fat diet-mouse [1]; 20% (w/v) oral three times a day, 3 Day): 2.5 ± 0.4 g/mouse/day
- Amount of Feed Intake (g/mouse/day) (high fat diet-mouse [1]; 20% (w/v) oral three times a day, 4 Day): 2.6 ± 0.2 g/mouse/day
- Amount of Feed Intake (g/mouse/day) (high fat diet-mouse [1]; 20% (w/v) oral three times a day, 5 Day): 2.1 ± 0.4 g/mouse/day
- Amount of Feed Intake (g/mouse/day) (high fat diet-mouse [1]; 40% (w/v) oral three times a day, 1 Day): 1.8 ± 0.5 g/mouse/day
- Amount of Feed Intake (g/mouse/day) (high fat diet-mouse [1]; 40% (w/v) oral three times a day, 2 Day): 2.0 ± 0.5 g/mouse/day
- Amount of Feed Intake (g/mouse/day) (high fat diet-mouse [1]; 40% (w/v) oral three times a day, 3 Day): 2.7 ± 0.6 g/mouse/day
- Amount of Feed Intake (g/mouse/day) (high fat diet-mouse [1]; 40% (w/v) oral three times a day, 4 Day): 2.5 ± 0.3 g/mouse/day
- Amount of Feed Intake (g/mouse/day) (high fat diet-mouse [1]; 40% (w/v) oral three times a day, 5 Day): 2.6 ± 0.3 g/mouse/day
- Total Amount of Fat (high fat diet-mouse [2]; 10% (w/v)): 1233.9 ± 244.8 mg
- Weight of Genital Fat (high fat diet-mouse [2]; 10% (w/v)): 473.3 ± 99.6 mg
- Weight of Intra-abdominal Fat (high fat diet-mouse [2]; 10% (w/v)): 113.0 ± 31.5 mg
- Weight of Liver (high fat diet-mouse [2]; 10% (w/v)): 1011.1 ± 33.5 mg
- Weight of Subcutaneous Fat (high fat diet-mouse [2]; 10% (w/v)): 647.6 ± 119.5 mg
- Total Amount of Fat (high fat diet-mouse [2]; 15% (w/v)): 795.8 ± 90.1 mg
- Weight of Genital Fat (high fat diet-mouse [2]; 15% (w/v)): 319.6 ± 46.5 mg
- Weight of Liver (high fat diet-mouse [2]; 15% (w/v)): 960.2 ± 44.6 mg
- Weight of Subcutaneous Fat (high fat diet-mouse [2]; 15% (w/v)): 411.3 ± 43.9 mg
- Total Amount of Fat (high fat diet-mouse [2]; 20% (w/v)): 666.9 ± 75.3 mg
- Weight of Genital Fat (high fat diet-mouse [2]; 20% (w/v)): 240.8 ± 45.5 mg
- Weight of Intra-abdominal Fat (high fat diet-mouse [2]; 20% (w/v)): 43.9 ± 9.3 mg
- Weight of Liver (high fat diet-mouse [2]; 20% (w/v)): 990.1 ± 35.1 mg
- Weight of Subcutaneous Fat (high fat diet-mouse [2]; 20% (w/v)): 382.1 ± 38.3 mg
- weight of liver vs control group (high fat diet-mouse [2]): decreased depending on the concentrations
- Increasing Amount of Blood Sugar (15 min.~0 hour) (normal mouse (ICR) [3]; [6]): 190.0 mg/dL
- Level of Blood Sugar Before and After Administration of D-glucose (mg/dl), 0 Hour (normal mouse (ICR) [3]; [6]): 74.8 mg/dL
- Level of Blood Sugar Before and After Administration of D-glucose (mg/dl), 15 min. (normal mouse (ICR) [3]; [6]): 264.8 mg/dL
- Rate of Suppression (%) (normal mouse (ICR) [3]; [6]): 19.7%
- Increasing Amount of Blood Sugar (15 min.~0 hour) (normal mouse (ICR) [3]; [7]): 191.0 mg/dL
- Level of Blood Sugar Before and After Administration of D-glucose (mg/dl), 0 Hour (normal mouse (ICR) [3]; [7]): 83.3 mg/dL
- Level of Blood Sugar Before and After Administration of D-glucose (mg/dl), 15 min. (normal mouse (ICR) [3]; [7]): 274.3 mg/dL
- Rate of Suppression (%) (normal mouse (ICR) [3]; [7]): 19.3%
- Increasing Amount of Blood Sugar (15 min.~0 hour) (normal mouse (ICR) [3]; [8]): 184.5 mg/dL
- Level of Blood Sugar Before and After Administration of D-glucose (mg/dl), 0 Hour (normal mouse (ICR) [3]; [8]): 83.3 mg/dL
- Level of Blood Sugar Before and After Administration of D-glucose (mg/dl), 15 min. (normal mouse (ICR) [3]; [8]): 267.8 mg/dL
- Rate of Suppression (%) (normal mouse (ICR) [3]; [8]): 22.0%
- Increasing Amount of Blood Sugar (15 min.~0 hour) (normal mouse (ICR) [3]; [9]): 180.7 mg/dL
- Level of Blood Sugar Before and After Administration of D-glucose (mg/dl), 0 Hour (normal mouse (ICR) [3]; [9]): 78.3 mg/dL
- Level of Blood Sugar Before and After Administration of D-glucose (mg/dl), 15 min. (normal mouse (ICR) [3]; [9]): 259.0 mg/dL
- Rate of Suppression (%) (normal mouse (ICR) [3]; [9]): 23.7%
- blood sugar caused by intaking glucose suppressed as compared with the control group (normal mouse (ICR) [3]; oral, all pre-treatment times): 19˜24%
- Increasing Amount of Blood Sugar (15 min.~0 hour) (normal mouse (ICR) [4]; [10]): 189.7 mg/dL
- Level of Blood Sugar Before and After Administration of Maltose (mg/dl), 0 hour (normal mouse (ICR) [4]; [10]): 83.2 mg/dL
- Level of Blood Sugar Before and After Administration of Maltose (mg/dl), 15 min. (normal mouse (ICR) [4]; [10]): 272.8 mg/dL
- Rate of Suppression (%) (normal mouse (ICR) [4]; [10]): 38.6%
- Increasing Amount of Blood Sugar (15 min.~0 hour) (normal mouse (ICR) [4]; [11]): 164.8 mg/dL
- Level of Blood Sugar Before and After Administration of Maltose (mg/dl), 0 hour (normal mouse (ICR) [4]; [11]): 87.2 mg/dL
- Level of Blood Sugar Before and After Administration of Maltose (mg/dl), 15 min. (normal mouse (ICR) [4]; [11]): 252.0 mg/dL
- Rate of Suppression (%) (normal mouse (ICR) [4]; [11]): 46.7%
- Increasing Amount of Blood Sugar (15 min.~0 hour) (normal mouse (ICR) [4]; [12]): 171.3 mg/dL
- Level of Blood Sugar Before and After Administration of Maltose (mg/dl), 0 hour (normal mouse (ICR) [4]; [12]): 86.2 mg/dL
- Level of Blood Sugar Before and After Administration of Maltose (mg/dl), 15 min. (normal mouse (ICR) [4]; [12]): 257.5 mg/dL
- Rate of Suppression (%) (normal mouse (ICR) [4]; [12]): 44.6%
- Increasing Amount of Blood Sugar (15 min.~0 hour) (normal mouse (ICR) [4]; [13]): 186.2 mg/dL
- Level of Blood Sugar Before and After Administration of Maltose (mg/dl), 0 hour (normal mouse (ICR) [4]; [13]): 77.7 mg/dL
- Level of Blood Sugar Before and After Administration of Maltose (mg/dl), 15 min. (normal mouse (ICR) [4]; [13]): 264.2 mg/dL
- Rate of Suppression (%) (normal mouse (ICR) [4]; [13]): 39.6%
- blood sugar caused by intaking maltose suppressed as compared with the control group (normal mouse (ICR) [4]; oral, all pre-treatment times): 38˜47%
- Change in body weight (%) ([5]; 10% (w/v) in drinking water, 0 Day): 100.0 ± 0.0%
- Change in body weight (%) ([5]; 10% (w/v) in drinking water, 1 Day): 98.1 ± 0.2%
- Change in body weight (%) ([5]; 10% (w/v) in drinking water, 2 Day): 97.6 ± 0.8 %
- Change in body weight (%) ([5]; 10% (w/v) in drinking water, 3 Day): 94.6 ± 0.7 %
- body weight as compared with the distilled water-drinking control group [5, 14]: decreased depending on the concentration
- body weight as compared with the initial body weight [5, 14]: significantly decreased
- Change in body weight (%) ([5]; 15% (w/v) in drinking water, 0 Day): 100.0 ± 0.0%
- Change in body weight (%) ([5]; 15% (w/v) in drinking water, 2 Day): 94.0 ± 1.3 %
- Change in body weight (%) ([5]; 20% (w/v) in drinking water, 0 Day): 100.0 ± 0.0%
- Change in body weight (%) ([5]; 20% (w/v) in drinking water, 1 Day): 100.0 ± 0.0%
- Change in body weight (%) ([5]; 20% (w/v) in drinking water, 2 Day): 89.1 ± 6.9 %
- Change in body weight (%) ([5]; 20% (w/v) in drinking water, 3 Day): 85.4 ± 8.1 %
- Solubility (Solubility in water): > 600 mg/mL

— US8975241B2, “Composition for treating and preventing obesity including high water-soluble 2-hydroxypropyl-betacyclodextrin as effective component” (Song Ho Biomed Co., Ltd., priority 2009, dated 2015)
